Assay results reported in patent publication US8926966B1 (Regents of the University of California, priority 1990, dated 2015).

Assays:
[1] = test system: IDDM associated autoantibodies in sera; assay: ELISA of sera on plate-bound human GAD65 peptides; type: binding; conditions: for number of IDDM (at risk, pre-IDDM, at onset) patients positive (X) for the peptide (unlabelled sum line): IDDM sera of Table 11
Description: Patient sera and most control sera were those used in a previous study (Kaufman, et al., J. Clin. Investigation, supra) All samples were coded and tested in a blind manner. Peptides were synthesized using an automatic instrument (Applied Biosystems, Foster City, Calif.) and standard conditions. Peptides were dissolved in 60 mM sodium bicarbonate buffer (pH 9.6) at 20 ug/ml and 100 ul of each was added to duplicated wells of a 96 well Nunc-Immuno Plate. Peptides were allowed to bind at 4° C. overnight. The plates were then washed three times with PBS+0.1% Tween 20 (wash buffer), after which the plates were pre-absorbed with 3% BSA in sodium bicarbonate buffer for 0.5 hours at 37° C., or at room temperature overnight. The plates were then washed 5 times with the above wash buffer. 100 ul of serum at a 1/300 dilution in PBS+0.1% Tween 20 and 1% BSA was added to each well and antibodies were allowed to bind for 1 hour at 37° C. The plates were washed 5 times with wash buffer. 100 ul of a 1/600 dilution of HRP-goat anti-human IgG (BRL, Gaithersberg, Md.) was added to each well and allowed to bind for 1 hour at 37° C. The plates were then washed 7 times and 100 ul of substrate buffer was added to each well for 30 minutes at room temperature. The color development was measured at 410 nm using an ELISA plate reader (ICN, Biomedicals, Costa Mesa, Calif.). Positive sera were defined as: OD410 of the sample/negative control ≧3.0.

[2] = test system: autoantibodies to GAD in patient sera; assay: Immunoprecipitation of ^35S-GAD65 / ^35S-GAD67 by sera drawn prior to IDDM onset; type: binding, human; parameters: key to band intensity of immunoprecipitated ^35S-GAD: 1 = lowest; 2 = medium; 3 = highest band intensities
Description: Islet cells were extracted as previously described by Atkinson, et al. (Lancet, 335:1357-1360, 1990) with the following modifications. […] The protein A Sepharose CL-4B was then boiled in Laemmli sample buffer (Laemmli, Nature, 227:680-685, 1970), and the samples were subjected to SDS-PAGE and fluororadiography (Kodak, X-omat AR5) using Enhance (New England Nuclear). Alternatively, the autoradiographs were analyzed by a BETAGEN (Boston, Mass.) analyzer. Both 64KA positive and negative sera were used in each assay, to serve as interassay controls. All fluororadiographs were analyzed and rated as positive or negative after comparison with the known interassay controls. […] A similar rating procedure was employed for the intensity of bands corresponding to immunoprecipitated ^35S-GAD65 and ^35S-GAD67.
Rat GAD65 and GAD67 cDNAs were subcloned into a bacterial expression system as previously described. Labeling of ^35S-GADs was completed by pulsing IPTG induced bacterium (growing in Minimal Media) for 15 minutes with TRAN ^35S-label (ICN). Cultures were then spun down and resuspended and sonicated in 1 ml of homogenizing buffer (1 mM phenylmethylsulfonyl fluoride (PMSF), 1 mM 2-aminoethylisothiouronium Bromide (AET) and 60 mM potassium phosphate, pH 7.1). After sonication, cell debris was removed by centrifugation and protein concentration was measured (Bradford, Anal. Biochem., 72:248, […]) in the supernatant (supernatant was stored in aliquots at −70° C.).

[3] = IDDM At Onset serum 048, 1/300 dilution
[4] = IDDM At Onset serum 291, 1/300 dilution
[5] = IDDM At Onset serum 705, 1/300 dilution
[6] = Pre-IDDM serum J.B. (2), 1/300 dilution
[7] = Pre-IDDM serum P.T. (2), 1/300 dilution
[8] = Pre-IDDM serum R.S. (2), 1/300 dilution
[9] = IDDM At Risk serum L.I., 1/300 dilution
[10] = IDDM At Risk serum 052, 1/300 dilution

GLLMSRKHKLSGVERANS [Peptide 25]
controls whose sera recognized the peptide ([1]; 13 control sera): 1 out of 13
number of control sera positive (X) for the peptide (unlabelled sum line) ([1]; 13 control sera): 1
immunoreactivity of serum with GAD65 peptide [1, 3]: X (X = positive for immunoreactivity as defined by 00/background^3.0)
immunoreactivity of serum with GAD65 peptide [1, 4]: X (X = positive for immunoreactivity as defined by 00/background^3.0)
immunoreactivity of serum with GAD65 peptide [1, 5]: X (X = positive for immunoreactivity as defined by 00/background^3.0)
immunoreactivity of serum with GAD65 peptide ([1]; IDDM At Onset serum S.H., 1/300 dilution): X (X = positive for immunoreactivity as defined by 00/background^3.0)
immunoreactivity of serum with GAD65 peptide ([1]; IDDM At Risk serum 356, 1/300 dilution): X (X = positive for immunoreactivity as defined by 00/background^3.0)
immunoreactivity of serum with GAD65 peptide ([1]; IDDM At Risk serum 825, 1/300 dilution): b (b = borderline response (00/background ?2.5-2.9).)
number of IDDM (at risk, pre-IDDM, at onset) patients positive (X) for the peptide (unlabelled sum line) [1]: 8
immunoreactivity of serum with GAD65 peptide ([1]; Pre-IDDM serum 723, 1/300 dilution): X (X = positive for immunoreactivity as defined by 00/background^3.0)
immunoreactivity of serum with GAD65 peptide [1, 6]: b (b = borderline response (00/background ?2.5-2.9).)
immunoreactivity of serum with GAD65 peptide ([1]; Pre-IDDM serum P.T. (1), 1/300 dilution): b (b = borderline response (00/background ?2.5-2.9).)
immunoreactivity of serum with GAD65 peptide [1, 7]: X (X = positive for immunoreactivity as defined by 00/background^3.0)
immunoreactivity of serum with GAD65 peptide ([1]; Pre-IDDM serum R.S. (1), 1/300 dilution): X (X = positive for immunoreactivity as defined by 00/background^3.0)
immunoreactivity of serum with GAD65 peptide [1, 8]: X (X = positive for immunoreactivity as defined by 00/background^3.0)
immunoreactivity of serum with GAD65 peptide ([1]; control serum FA12, 1/300 dilution): b (b = borderline response (00/background ?2.5-2.9).)
immunoreactivity of serum with GAD65 peptide ([1]; control serum S.M., 1/300 dilution): X (X = positive for immunoreactivity as defined by 00/background^3.0)
patients whose sera recognized the peptide ([1]; patients previously shown to be 64K positive): 6/8

LAFLQDVMNILLQYVVKSFDRS [Peptide 8]
immunoreactivity of serum with GAD65 peptide [1, 5]: X (X = positive for immunoreactivity as defined by 00/background^3.0)
immunoreactivity of serum with GAD65 peptide [1, 9]: X (X = positive for immunoreactivity as defined by 00/background^3.0)
number of IDDM (at risk, pre-IDDM, at onset) patients positive (X) for the peptide (unlabelled sum line) [1]: 2
immunoreactivity of serum with GAD65 peptide [1, 6]: b (b = borderline response (00/background ?2.5-2.9).)
immunoreactivity of serum with GAD65 peptide [1, 7]: b (b = borderline response (00/background ?2.5-2.9).)
immunoreactivity of serum with GAD65 peptide [1, 8]: b (b = borderline response (00/background ?2.5-2.9).)

DMVGLAADWLTSTANTNMFT [Peptide 13]
immunoreactivity of serum with GAD65 peptide [1, 10]: b (b = borderline response (00/background ?2.5-2.9).)

EYVTLKKMREIIGWPGGSGD [Peptide 15]
immunoreactivity of serum with GAD65 peptide [1, 10]: b (b = borderline response (00/background ?2.5-2.9).)

EYGTTTMVSYQPLGDKVNFFR [Peptide 36]
immunoreactivity of serum with GAD65 peptide [1, 5]: X (X = positive for immunoreactivity as defined by 00/background^3.0)
number of IDDM (at risk, pre-IDDM, at onset) patients positive (X) for the peptide (unlabelled sum line) [1]: 1

EYLYNIIKNREGYEMVFDGK [Peptide 32]
immunoreactivity of serum with GAD65 peptide [1, 3]: X (X = positive for immunoreactivity as defined by 00/background^3.0)
immunoreactivity of serum with GAD65 peptide [1, 4]: b (b = borderline response (00/background ?2.5-2.9).)
immunoreactivity of serum with GAD65 peptide [1, 9]: b (b = borderline response (00/background ?2.5-2.9).)
number of IDDM (at risk, pre-IDDM, at onset) patients positive (X) for the peptide (unlabelled sum line) [1]: 1
immunoreactivity of serum with GAD65 peptide [1, 7]: b (b = borderline response (00/background ?2.5-2.9).)
immunoreactivity of serum with GAD65 peptide ([1]; control serum 4380, 1/300 dilution): b (b = borderline response (00/background ?2.5-2.9).)

B1: GAD67: rat GAD67 expressed in bacteria, ^35S-labeled, in bacterial lysate (protein)
chain: MASSTPSPATSSNAGADPNTTNLRPTTYDTWCGVAHGCTRKLGLKICGFLQRTNSLEEKSRLVSAFRERQASKNLLSCENSDPGARFRRTETDFSNLFAQDLLPAKNGEEQTVQFLLEVVDILLNYVRKTFDRSTKVLDFHHPHQLLEGMEGFNLELSDHPESLEQILVDCRDTLKYGVRTGHPRFFNQLSTGLDIIGLAGEWLTSTANTNMFTYEIAPVFVLMEQITLKKMREIIGWSNKDGDGIFSPGGAISNMYSIMAARYKYFPEVKTKGMAAVPKLVLFTSEHSHYSIKKAGAALGFGTDNVILIKCNERGKIIPADLEAKILDAKQKGFVPLYVNATAGTTVYGAFDPIQEIADICEKYNLWLHVDAAWGGGLLMSRKHRHKLSGIERANSVTWNPHKMMGVLLQCSAILVKEKGILQGCNQMCAGYLFQPDKQYDVSYDTGDKAIQCGRHVDIFKFWLMWKAKGTVGFENQINKCLELAEYLYAKIKNREEFEMVFNGEPEHTNVCFWYIPQSLRGVPDSPERREKLHRVAPKIKALMMESGTTMVGYQPQGDKANFFRMVISNPAATQSDIDFLIEEIERLGQDL
band intensity of immunoprecipitated ^35S-GAD ([2]; serum of patient eight, drawn 8 months before IDDM onset): 0
band intensity of immunoprecipitated ^35S-GAD ([2]; serum of patient eleven, drawn 10 months before IDDM onset): 1
band intensity of immunoprecipitated ^35S-GAD ([2]; serum of patient five, drawn 34 months before IDDM onset): 0
band intensity of immunoprecipitated ^35S-GAD ([2]; serum of patient nine, drawn 42 months before IDDM onset): 0
band intensity of immunoprecipitated ^35S-GAD ([2]; serum of patient one, drawn 9 months before IDDM onset): 1
band intensity of immunoprecipitated ^35S-GAD ([2]; serum of patient seven, drawn 3 months before IDDM onset): 1
band intensity of immunoprecipitated ^35S-GAD ([2]; serum of patient six, drawn 11 months before IDDM onset): 1
band intensity of immunoprecipitated ^35S-GAD ([2]; serum of patient ten, drawn 25 months before IDDM onset): 1
band intensity of immunoprecipitated ^35S-GAD ([2]; serum of patient three, drawn 14 months before IDDM onset): 0
band intensity of immunoprecipitated ^35S-GAD ([2]; serum of patient twelve, drawn 4 months before IDDM onset): 0
band intensity of immunoprecipitated ^35S-GAD ([2]; serum of patient two, drawn 6 months before IDDM onset): 2
band intensity of immunoprecipitated ^35S-GAD ([2]; serum of patient, drawn 66 months before IDDM onset): 0
